From patent publication US10022376B2 (Pfizer Inc., priority 2014, dated 2018) come the findings set out here.

pIC50: −log10 of the molar value.

The test concerns rhIFNγ stimulated STAT-3 phosphorylation in the A549 human epithelial cell line. Briefly: A549 Cell Assay: Inhibition of pSTAT3. The class given is cell-based. The following applies: Homo sapiens; A549 cells. As for the experimental part:
A549 Cell Assay: Inhibition of pSTAT3
An assay measuring the efficacy of JAK inhibitors on the functional response of recombinant human interferon γ (rhIFNγ) stimulated STAT-3 phosphorylation in the A549 human epithelial cell line.
A549 cells (ATCC #CCL-185), were plated at 30,000 cells/well in 96 well flat bottomed tissue culture plates (BD#353072) in 200 μL of growth medium (DMEM, Pfizer media prep, with 10% Fetal Bovine Serum, Sigma #F4135, 2 mM L-Glutamine, Pfizer media prep, 100 U/mL penicillin, Pfizer media prep, and 200 μg/ml streptomycin, Pfizer media prep), and cultured at 37° C., 5% CO2 incubator for 18 hours. Growth medium was removed by vacuum aspiration (V&P Scientific #vp187 bp-60), and 90 μL of pre-warmed assay medium (DMEM with 0.2% BSA, Miltenyi #130-091-376) was added to each well and incubated for 15 minutes at 37° C. 10 μL of vehicle control or test compound (final concentration range of 0.3 nM to 10 μM with 0.1% DMSO) was added to the cells. Plates were incubated at 37° C. for 1 hour. After compound incubation, 10 μL of 220 ng/mL recombinant human IFNγ (R&D Systems #285-IF, final rhIFNγ concentration of 20 ng/mL) was added to the cells and plates were incubated for 30 minutes at 37° C. Wells containing A549 cells, medium with 0.1% DMSO and no rhIFNγ were used as background controls. After rhIFNγ stimulation, media was aspirated from each well and 35 μL/well of iced-cold MSD lysis buffer containing protease and phosphatase inhibitors from Phospho-STAT3 Tyr705 assay kit (Meso-Scale Discovery #K150DID) was added to each well. Plates were incubated at 4° C. with shaking for 30 minutes. Cell lysates were assayed following the MSD Phospho-STAT3 Tyr705 assay kit protocol to detect pSTAT3.
Data were collected and transformed into percent inhibition and calculated using the following formula: […]
For orientation: pIC50 means the negative decadic logarithm of the IC50, by convention in mol/L. Read a high pIC50 as a small IC50. Regarding `CCN(c1ccc(O)cc1CNc1nc(-c2cc(F)c(O)cc2CC(F)(F)F)cc2[nH]nc(C(N)=O)c12)S(=O)(=O)c1ccccc1` [Example 43, 4-({2-[ethyl(phenylsulfonyl)amino]-5-hydroxybenzyl}amino)-6-[5-fluoro-4-hydroxy-2-(2,2,2-trifluoroethyl)phenyl]-1H-pyrazolo[4,3-c]pyridine-3-carboxamide], the pIC50 was 6.12.
Next, `CNC(=O)c1n[nH]c2cc(-c3cc(F)c(O)cc3CC(F)(F)F)nc(NCc3nccnc3N(C)S(=O)(=O)c3ccccc3)c12` [Example 44, 6-[5-fluoro-4-hydroxy-2-(2,2,2-trifluoroethyl)phenyl]-N-methyl-4-[({3-[methyl(phenylsulfonyl)amino]pyrazin-2-yl}methyl)amino]-1H-pyrazolo[4,3-c]pyridine-3-carboxamide]: 7.22; `CCN(c1nccnc1CNc1nc(-c2cc(F)c(O)cc2CC(F)(F)F)cc2[nH]nc(C(=O)NC)c12)S(C)(=O)=O` [Example 45, 4-[({3-[ethyl(methylsulfonyl)amino]pyrazin-2-yl}methyl)amino]-6-[5-fluoro-4-hydroxy-2-(2,2,2-trifluoroethyl)phenyl]-N-methyl-1H-pyrazolo[4,3-c]pyridine-3-carboxamide]: 7.33.
For `CN(c1ccccc1CNc1nc(-c2cc(F)c(O)cc2C2CC2)cc2[nH]nc(C(N)=O)c12)S(C)(=O)=O` [Example 47, 6-(2-cyclopropyl-5-fluoro-4-hydroxyphenyl)-4-({2-[methyl(methylsulfonyl)amino]benzyl}amino)-1H-pyrazolo[4,3-c]pyridine-3-carboxamide] the value was 6.55; for `CNC(=O)c1n[nH]c2cc(-c3cc(F)c(O)cc3CC(F)(F)F)nc(NCc3cnccc3N(C)S(C)(=O)=O)c12` [Example 48, 6-[5-fluoro-4-hydroxy-2-(2,2,2-trifluoroethyl)phenyl]-N-methyl-4-[({4-[methyl(methylsulfonyl)amino]pyridin-3-yl}methyl)amino]-1H-pyrazolo[4,3-c]pyridine-3-carboxamide], less than 5.00.
For `CNC(=O)c1n[nH]c2cc(-c3cc(F)c(O)cc3C3CC3)nc(NCc3cccnc3N(C)S(C)(=O)=O)c12` [Example 49, 6-(2-cyclopropyl-5-fluoro-4-hydroxyphenyl)-N-methyl-4-[({2-[methyl(methylsulfonyl)amino]pyridin-3-yl}methyl)amino]-1H-pyrazolo[4,3-c]pyridine-3-carboxamide] the value was 6.41; for `CNC(=O)c1n[nH]c2cc(-c3cc(F)c(O)cc3CC(F)(F)F)nc(NCc3nccnc3N(C)S(C)(=O)=O)c12` [Example 51, 6-[5-fluoro-4-hydroxy-2-(2,2,2-trifluoroethyl)phenyl]-N-methyl-4-[({3-[methyl(methylsulfonyl)amino]pyrazin-2-yl}methyl)amino]-1H-pyrazolo[4,3-c]pyridine-3-carboxamide], 6.74.
`CCN(c1ncccc1CNc1nc(-c2cc(F)c(O)cc2CC(F)(F)F)cc2[nH]nc(C(N)=O)c12)S(C)(=O)=O` [Example 52, 4-[({2-[ethyl(methylsulfonyl)amino]pyridin-3-yl}methyl)amino]-6-[5-fluoro-4-hydroxy-2-(2,2,2-trifluoroethyl)phenyl]-1H-pyrazolo[4,3-c]pyridine-3-carboxamide] showed a pIC50 of 7.13.
Next, `CNC(=O)c1n[nH]c2cc(-c3cc(F)c(O)cc3CC(F)(F)F)nc(NCc3cccnc3N(C)S(C)(=O)=O)c12` [Example 53, 6-[5-fluoro-4-hydroxy-2-(2,2,2-trifluoroethyl)phenyl]-N-methyl-4-[({2-[methyl(methylsulfonyl)amino]pyridin-3-yl}methyl)amino]-1H-pyrazolo[4,3-c]pyridine-3-carboxamide]: 7.67.
